Reference: paper PMC10545747, “Development of cyclopeptide inhibitors of cGAS targeting protein-DNA interaction and phase separation” (Nature Communications, 2023)
Several values for one entry are separate records, joined by “and”; a condition that tells them apart may be missing. Identical values can stand only once. Entries after “also recorded” stand apart in the source; their conditions may differ. Square brackets hold non-standard residues; d marks the D form. Peptide text beside a SMILES is read from it.

Key:
[1] = tested on: dsDNA-stimulated THP1 cells; assay: qPCR of IFNB1/CXCL10/IL6 mRNA in THP1 cells stimulated by dsDNA (ISD, HSV60mer); assay type: cell-based, human; settings: for IFNB1 mRNA, qPCR, Fig. 2b: 10 μM
Text: To screen direct cGAS inhibitors targeting protein-DNA interface from our developed focused library of macrocyclic peptides, we applied an RNA-based fluorescent biosensor for 2’,3’-cGAMP to detect cGAS activity in vitro (Supplementary Fig. 1a)[49]. The formation of 2’,3’-cGAMP from ATP and GTP was catalyzed by recombinant human cGAS enzyme (hcGAS-ΔN, residues 147–522, Supplementary Fig. 1b) in the presence of ISD (interferon stimulatory DNA, a 45-bp dsDNA), which was readily quantified by the RNA-based fluorescent biosensor and was further confirmed by ion exchange chromatography (Supplementary Fig. 1c). […] Subsequently, a total of 90 macrocyclic peptides were screened at a concentration of 20 μM (Fig. 1a and Supplementary Fig. 1e), and 4 hits (XQ2, XQ8, XQ19, and XQ46) were obtained for further testing at a cut-off of 40% inhibition (Supplementary Table 1). To evaluate the inhibitory effect of the hits against cGAS in cells, we employed real-time quantitative PCR (qPCR) to examine mRNA levels of IFNΒ1 in THP1 cells. The reported cGAS inhibitor RU.521 was used as the positive control, and the non-active peptide XQ28 in the screening assay was used as the negative control. […] The inhibition of cGAS by these hits was further confirmed in the reporter cell line THP1-Lucia ISG (Invivogen) that expresses secreted luciferase induced by an IRF3-inducible ISG54 promoter (Fig. 1c). The discrepancy between the inhibitory effect of the hits in protein and cellular assays may be attributed to their different cellular permeability.
(§1) The indicated cells were stimulated with either ISD (Sangon Biotech), HSV-1 (Provided by Dr. Zhengfan Jiang), HSV60mer (Sangon Biotech), SATE-cddA[70], 2’3’-cGAMP (Invivogen, Cat# tlrl-nacga23-1), ADU-S100 (MedChemExpress, Cat# HY-12885A) or Poly(I:C) (Invivogen, Cat# tlrl-pic) after XQ2 or XQ2B treatment. Total RNA was isolated from indicated cells that incubated with the drugs for indicated time or mice tissues by using NucleoZOL reagent (MACHEREY-NAGEL) according to the manufacturer’s instructions. The quantifications of mRNA levels were carried out by real-time PCR using a PerfectStart® Uni RT&qPCR Kit (TransGen Biotech) on the QuantStudio 5 qPCR machine (Applied Biosystems). Samples were carried out in triplicate and the target CT values were normalized to GAPDH CT values. Primers of qPCR used in this study can be found in Supplementary Table S2.

HSV-1 in THP1 cells = assay: HSV-1(UL5) mRNA by qPCR (virus infection of cells); assay type: cell-based, herpes simplex virus-1; set-up: key to HSV-1(UL5) mRNA, qPCR, Fig. 5d / HSV-1(UL5) mRNA (Fig. S8e): relative mRNA level, target CT normalized to GAPDH CT; settings: for HSV-1(UL5) mRNA, qPCR, Fig. 5d: XQ2 10 μM
Protocol: as §1

[2] = tested on: macrophage RAW264.7 cells; assay: qPCR of Ifnb1/Cxcl10/Il6 mRNA in RAW264.7 cells (ISD or HSV-1); assay type: cell-based, mouse; set-up: key to Ifnb1 mRNA (Fig. S2c) / Cxcl10 mRNA (Fig. S2c) / Ifnb1 mRNA (Fig. S2d) / Cxcl10 mRNA (Fig. S2d) / Ifnb1 mRNA (Fig. S7g) / Cxcl10 mRNA (Fig. S7g) / Il6 mRNA (Fig. S7g): mRNA level normalized to GAPDH (relative expression)
Protocol: as §1, with “S2. […]” for “S2.”
(c) L929, p = 0.0005 (Ifnb1),
BMDMs, p = 0.0001 (Ifnb1), p < 0.0001 (Cxcl10).
representative of three independent experiments in (a-g). (Data are presented as mean ± SD, n = 3 independent
Source data are provided as a Source Data file.

## CC(C)C[C@@H]1NC(=O)[C@H](CCCNC(=N)N)NC(=O)[C@H](C(C)C)NC(=O)[C@@H]2CCCN2C(=O)[C@@H](Cc2ccccc2)NC(=O)[C@H](CC(C)C)NC(=O)[C@H](CCCNC(=N)N)NC(=O)[C@H](C(C)C)NC(=O)[C@H](C)NC(=O)[C@@H](Cc2ccccc2)NC1=O [XQ2, Cyclo (LfAVRLfPVR)] (cyclo(L[dF]AVRL[dF]PVR))
[1]; ISD, XQ2 0.31 μM
  CXCL10 mRNA (Fig. S2a): 608.071 and 547.477 and 553.882
  IFNB1 mRNA (Fig. S2a): 85.2902 and 89.4127 and 103.445
  IL6 mRNA (Fig. S2a): 53.8661 and 62.1977 and 48.2598
[1]; ISD, XQ2 0.63 μM
  CXCL10 mRNA (Fig. S2a): 550.9 and 499.514 and 482.522
  IFNB1 mRNA (Fig. S2a): 75.3551 and 77.8155 and 85.6546
  IL6 mRNA (Fig. S2a): 45.9203 and 56.9516 and 44.1827
[1]; ISD, XQ2 1.25 μM
  CXCL10 mRNA (Fig. S2a): 440.727 and 424.983 and 441.062
  IFNB1 mRNA (Fig. S2a): 54.4915 and 50.1897 and 58.943
  IL6 mRNA (Fig. S2a): 59.6412 and 54.8577 and 42.9996
[1]; ISD, XQ2 2.5 μM
  CXCL10 mRNA (Fig. S2a): 320.996 and 337.289 and 307.846
  IFNB1 mRNA (Fig. S2a): 46.4673 and 40.8489 and 46.9306
  IL6 mRNA (Fig. S2a): 51.498 and 49.1657 and 30.2376
[1]; ISD, XQ2 5 μM
  CXCL10 mRNA (Fig. S2a): 341.101 and 357.811 and 355.382
  IFNB1 mRNA (Fig. S2a): 26.7077 and 29.7394 and 30.8514
  IL6 mRNA (Fig. S2a): 24.0755 and 29.7141 and 20.0828
[1]; ISD, XQ2 10 μM
  CXCL10 mRNA (Fig. S2a): 329.162 and 346.227 and 299.128
  IFNB1 mRNA (Fig. S2a): 10.6974 and 11.3948 and 12.0973
  IL6 mRNA (Fig. S2a): 18.3875 and 16.237 and 20.2076
[1]; Mock, XQ2 0.31 μM
  CXCL10 mRNA (Fig. S2a): 0.6255 and 0.7855 and 0.8542
  IFNB1 mRNA (Fig. S2a): 0.7527 and 0.6452 and 0.8722
  IL6 mRNA (Fig. S2a): 0.9875 and 1.125 and 1.458
[1]; Mock, XQ2 0.63 μM
  CXCL10 mRNA (Fig. S2a): 0.4588 and 0.432 and 0.4044
  IFNB1 mRNA (Fig. S2a): 0.713 and 0.5919 and 0.8053
  IL6 mRNA (Fig. S2a): 1.48 and 1.078 and 1.222
[1]; Mock, XQ2 1.25 μM
  CXCL10 mRNA (Fig. S2a): 1.308 and 1.359 and 1.615
  IFNB1 mRNA (Fig. S2a): 0.9026 and 1.107 and 1.382
[1]; Mock, XQ2 2.5 μM
  CXCL10 mRNA (Fig. S2a): 3.137 and 2.991 and 2.833
  IFNB1 mRNA (Fig. S2a): 1.426 and 1.751 and 1.799
  IL6 mRNA (Fig. S2a): 2.387 and 2.459 and 3.439
[1]; Mock, XQ2 5 μM
  CXCL10 mRNA (Fig. S2a): 1.923 and 2.134 and 2.246
  IFNB1 mRNA (Fig. S2a): 1.17 and 1.093 and 1.0788
[1]; Mock, XQ2 10 μM
  CXCL10 mRNA (Fig. S2a): 4.593 and 4.941 and 4.3739
  IFNB1 mRNA (Fig. S2a): 1.523 and 2.285 and 2.284
  IL6 mRNA (Fig. S2a): 4.656 and 4.111 and 3.925
[1]; THP1
  dsDNA/ISD-induced IFNB1, CXCL10, IL6 expression: inhibited the expression level of IFNΒ1 and CXCL10, as well as IL6; also recorded: best potency in the cellular assays
[1]; THP1, ISD
  IFNB1 mRNA, qPCR, Fig. 2b: 72.2364 and 85.3888 and 75.3743
[1]; THP1, Mock (no stimulus)
  IFNB1 mRNA, qPCR, Fig. 2b: 1.523 and 2.285 and 2.284
[1]; THP1, dsDNA 6 h, hits 10 μM, replicate values
  IFNB1 mRNA, qPCR, Fig. 1b: 24.5085 and 22.546 and 27.0371
[1]; as stated in the rebuttal letter, cellular assays
  cellular efficacy against cGAS: < 10 µM
HSV-1 in THP1 cells; 10 μM
  HSV-1 infection of THP1 cells, HSV1(UL5) mRNA: substantially facilitated HSV-1 infection of THP1 cells
HSV-1 in THP1 cells; HSV-1(1×104)24h
  HSV-1(UL5) mRNA, qPCR, Fig. 5d: 1.256 and 1.311 and 1.284
HSV-1 in THP1 cells; HSV-1(1×104)48h
  HSV-1(UL5) mRNA, qPCR, Fig. 5d: 9.927 and 7.927 and 10.0304
HSV-1 in THP1 cells; HSV-1(2×104)24h
  HSV-1(UL5) mRNA, qPCR, Fig. 5d: 4.976 and 4.739 and 4.656
HSV-1 in THP1 cells; HSV-1(2×104)48h
  HSV-1(UL5) mRNA, qPCR, Fig. 5d: 18.9511 and 21.7278 and 21.8028
[2]; RAW264.7, 10 μM
  Ifnb1 and Cxcl10 expression induced by ISD and HSV-1: significantly inhibited the expression of Ifnb1 and its downstream gene Cxcl10
[2]; RAW264.7, HSV-1+XQ2
  Cxcl10 mRNA (Fig. S2d): 226.869 and 260.086 and 204.298
  Ifnb1 mRNA (Fig. S2d): 1317.92 and 1543.45 and 1644.53
[2]; RAW264.7, ISD+XQ2
  Cxcl10 mRNA (Fig. S2c): 1626.72 and 1806.59 and 1855.72
  Ifnb1 mRNA (Fig. S2c): 12350.6 and 12954.9 and 11525.9
[2]; RAW264.7, XQ2 alone
  Cxcl10 mRNA (Fig. S2c): 3.511 and 3.569 and 3.235
  Cxcl10 mRNA (Fig. S2d): 3.511 and 3.569 and 3.235
  Ifnb1 mRNA (Fig. S2c): 1.57 and 1.726 and 1.836
  Ifnb1 mRNA (Fig. S2d): 1.57 and 1.726 and 1.836
